Literature values, collected in US8541025B2, “Co-crystals and pharmaceutical formulations comprising the same” (Vertex Pharmaceuticals Incorporated, priority 2008, dated 2013).
Like-named read-outs stand apart in the source and are kept apart here.

Target: hepatitis C virus ("HCV") NS3/4A protease (Hepatitis C virus genotype 1a, UniProt P27958)
Sequence (P27958 1027-1657): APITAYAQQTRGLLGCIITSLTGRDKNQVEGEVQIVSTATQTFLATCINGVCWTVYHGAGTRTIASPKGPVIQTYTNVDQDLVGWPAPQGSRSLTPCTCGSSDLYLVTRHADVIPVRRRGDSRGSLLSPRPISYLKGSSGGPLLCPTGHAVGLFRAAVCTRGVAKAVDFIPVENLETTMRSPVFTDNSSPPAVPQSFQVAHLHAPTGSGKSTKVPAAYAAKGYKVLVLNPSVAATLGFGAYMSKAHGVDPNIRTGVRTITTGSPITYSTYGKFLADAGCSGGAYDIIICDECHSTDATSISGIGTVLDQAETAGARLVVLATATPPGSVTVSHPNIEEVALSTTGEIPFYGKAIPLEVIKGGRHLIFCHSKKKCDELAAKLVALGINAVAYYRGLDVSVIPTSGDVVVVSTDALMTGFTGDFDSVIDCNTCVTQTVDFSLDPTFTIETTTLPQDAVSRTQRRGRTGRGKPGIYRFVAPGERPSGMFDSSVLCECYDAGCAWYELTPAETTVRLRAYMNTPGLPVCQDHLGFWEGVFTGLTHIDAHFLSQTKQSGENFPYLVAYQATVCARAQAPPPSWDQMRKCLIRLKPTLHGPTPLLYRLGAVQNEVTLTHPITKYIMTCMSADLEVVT
Sequence (P27958 1658-1711): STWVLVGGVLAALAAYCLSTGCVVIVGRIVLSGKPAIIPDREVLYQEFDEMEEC

## CC[C@H](NC(=O)[C@@H]1[C@H]2CCC[C@H]2CN1C(=O)[C@@H](NC(=O)C(NC(=O)c1cnccn1)C1CCCCC1)C(C)(C)C)C(=O)C(=O)NC1CC1 (some centres unmarked) [VX-950]
competitive, reversible inhibitor, read-out: steady state binding constant (ki*)
  Ki: 3 nM
read-out: Ki
  Ki: 8 nM
